Measurements published in PubChem BioAssay AID256 (DTP/NCI, 2004).
Inconclusive results and toxic doses are left out.

System: CD2F1 mice, L1210 leukemia ip, survival T/C
Experiment: NCI In Vivo Anticancer Drug Screen. Data for tumor model L1210 Leukemia (intraperitoneal) in CD2F1 (CDF1) mice
Details: endpoint: mean survival time, higher = longer survival
In short: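 Ratio T/C, where T is the treated-group value and C the vehicle-dosed control value, from mice implanted with a transplantable tumor.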

[1] = dose: 100.0 mg/kg/injection, schedule: Q01DX009 (ip), vehicle: saline with Tween-80
[2] = dose: 100.0 mg/kg/injection, schedule: Q04DX003 (ip), vehicle: saline with Tween-80
[3] = dose: 200.0 mg/kg/injection, schedule: Q01DX009 (ip), vehicle: saline with Tween-80
[4] = dose: 200.0 mg/kg/injection, schedule: Q04DX003 (ip), vehicle: saline with Tween-80
[5] = dose: 400.0 mg/kg/injection, schedule: Q01DX009 (ip), vehicle: saline with Tween-80
[6] = dose: 400.0 mg/kg/injection, schedule: Q04DX003 (ip), vehicle: saline with Tween-80

SMILES: CCC1CN2CCC1CC2C(O)c1cc[n+]([O-])c2ccc(OC)cc12 (centres undefined)
- T/C (dose: 100.0 mg/kg/injection, schedule: Q04DX003 (ip), vehicle: Klucel (hydroxypropylcellulose) (HPC)): 98 % of control
- T/C (dose: 200.0 mg/kg/injection, schedule: Q04DX003 (ip), vehicle: Klucel (hydroxypropylcellulose) (HPC)): 102 % of control
- T/C (dose: 400.0 mg/kg/injection, schedule: Q04DX003 (ip), vehicle: Klucel (hydroxypropylcellulose) (HPC)): 102 % of control

SMILES: COC(=O)CCC(=O)c1ccc(C)cc1
- T/C (dose: 100.0 mg/kg/injection, schedule: Q04DX003 (ip), vehicle: acetone): 94 % of control
- T/C (dose: 200.0 mg/kg/injection, schedule: Q04DX003 (ip), vehicle: acetone): 104 % of control
- T/C (dose: 400.0 mg/kg/injection, schedule: Q04DX003 (ip), vehicle: acetone): 98 % of control

SMILES: CCNNC(=O)[C@@H]1[C@H](c2cc(OC)c(OC)c(OC)c2)c2cc3c(cc2[C@H](O)[C@H]1CO)OCO3
- T/C (dose: 7.8 mg/kg/injection, schedule: Q01DX Z (ip), vehicle: saline): 100 % of control
- T/C (dose: 15.6 mg/kg/injection, schedule: Q01DX Z (ip), vehicle: saline): 96 % of control
- T/C (dose: 31.3 mg/kg/injection, schedule: Q01DX Z (ip), vehicle: saline): 103 % of control
- T/C (dose: 62.5 mg/kg/injection, schedule: Q01DX Z (ip), vehicle: saline): 111 % of control

SMILES: O=P(O)(O)c1ccccc1 (tested in a mixture with another compound)
- T/C (dose: 100.0 mg/kg/injection, schedule: Q04DX003 (ip), vehicle: saline): 100 % of control
- T/C (dose: 200.0 mg/kg/injection, schedule: Q04DX003 (ip), vehicle: saline): 91 % of control
- T/C (dose: 400.0 mg/kg/injection, schedule: Q04DX003 (ip), vehicle: saline): 95 % of control

SMILES: O=[N+]([O-])c1ccc(/C=C/c2ccccc2)cc1
- T/C [1]: 104 % of control
- T/C [2]: 102 % of control
- T/C [3]: 100 % of control
- T/C [4]: 104 % of control
- T/C [5]: 98 % of control
- T/C [6]: 96 % of control

SMILES: OC(c1ccccc1)(c1ccccc1)c1ccccc1
- T/C [2]: 101 % of control
- T/C [4]: 98 % of control
- T/C [6]: 98 % of control

SMILES: Cc1c2ccncc2c(C)c2c1[nH]c1ccc(O)cc12
- T/C (dose: 16.75 mg/kg/injection, schedule: Q04DX003 (ip), vehicle: water): 116 % of control
- T/C (dose: 50.0 mg/kg/injection, schedule: Q04DX003 (ip), vehicle: other): 166 % of control
- T/C (dose: 75.0 mg/kg/injection, schedule: Q04DX003 (ip), vehicle: water): 111 % of control
- T/C (dose: 100.0 mg/kg/injection, schedule: Q04DX003 (ip), vehicle: other): 102 % of control
- T/C (dose: 100.0 mg/kg/injection, schedule: Q04DX003 (ip), vehicle: water): 94 % of control

SMILES: ClCCCCC(Cl)(Cl)Cl
- T/C (dose: 100.0 mg/kg/injection, schedule: Q01DX001 (ip), vehicle: Klucel (hydroxypropylcellulose) (HPC)): 101 % of control
- T/C (dose: 200.0 mg/kg/injection, schedule: Q01DX001 (ip), vehicle: Klucel (hydroxypropylcellulose) (HPC)): 98 % of control
- T/C (dose: 400.0 mg/kg/injection, schedule: Q01DX001 (ip), vehicle: Klucel (hydroxypropylcellulose) (HPC)): 93 % of control

SMILES: Cc1c(C(=O)c2no[n+]([O-])c2C(=O)c2c(C)c([N+](=O)[O-])c(C)c([N+](=O)[O-])c2C)c(C)c([N+](=O)[O-])c(C)c1[N+](=O)[O-]
- T/C [1]: 87 % of control
- T/C [2]: 102 % of control
- T/C [3]: 96 % of control
- T/C [4]: 88 % of control
- T/C [5]: 88 % of control
- T/C [6]: 98 % of control

SMILES: CCCCOC(=O)CCC(NC(=O)c1ccc(N(C)Cc2cnc3nc(N)nc(N)c3n2)cc1)C(=O)O (centres undefined)
- T/C (dose: 0.19 mg/kg/injection, schedule: Q01DX009 (ip), vehicle: water): 112 % of control
- T/C (dose: 0.38 mg/kg/injection, schedule: Q01DX009 (ip), vehicle: water): 120 % of control
- T/C (dose: 1.5 mg/kg/injection, schedule: Q01DX009 (ip), vehicle: water): 159 % of control
- T/C (dose: 3.0 mg/kg/injection, schedule: Q01DX009 (ip), vehicle: water): 180 % of control
- T/C (dose: 6.0 mg/kg/injection, schedule: Q01DX009 (ip), vehicle: water): 86 % of control

SMILES: CS(=O)(=O)OC(OS(C)(=O)=O)(OS(C)(=O)=O)OS(C)(=O)=O
- T/C [2]: 111 % of control
- T/C [4]: 105 % of control
- T/C [6]: 105 % of control

SMILES: O=C(O)CCCCCSc1nn(C2OC(CO)C(O)C2O)c(=O)[nH]c1=O (centres undefined)
- T/C (dose: 12.5 mg/kg/injection, schedule: Q01DX005 (ip), vehicle: distilled water + Tween-80): 112 % of control
- T/C (dose: 25.0 mg/kg/injection, schedule: Q01DX005 (ip), vehicle: distilled water + Tween-80): 104 % of control
- T/C (dose: 50.0 mg/kg/injection, schedule: Q01DX005 (ip), vehicle: distilled water + Tween-80): 104 % of control
- T/C (dose: 100.0 mg/kg/injection, schedule: Q01DX005 (ip), vehicle: distilled water + Tween-80): 104 % of control
- T/C (dose: 200.0 mg/kg/injection, schedule: Q01DX005 (ip), vehicle: distilled water + Tween-80): 104 % of control
